The text below walks through data of US10842807B2, “Methods of treating neurodegenerative disorders comprising DNA methyltransferase inhibitors” (Washington University, priority 2016, dated 2020).

The subject of series [1] is Htt-72Q mRNA. Nature of the series: qRT-PCR for Htt-72Q (human) mRNA in cortical neurons. Type of series: cell-based, mouse. Particulars: RNA at DIV 10, compared to vehicle (DMSO). (Real-time PCR tracks product formation cycle by cycle.)
Experimental: (FIG. 8A) DIV 5 mouse primary cortical neurons were infected with Htt-72Q lentivirus and treated with decitabine or vehicle (DMSO). RNA was prepared at DIV 10 and subjected to qRT-PCR analysis for Htt-72Q (human). β-actin and Hprt were used as reference genes. […] (FIG. 8B) DIV 5cortical neurons were infected with Htt lentivirus and treated with decitabine (0.2 μM) or DMSO. Neurons were fixed at DIV 11-12 and subjected to indirect immunofluorescence with a specific mouse monoclonal Htt antibody EM48, which preferentially detects aggregated mutant protein. Nuclei were labeled with Hoechst 33342. Images were captured using an Operetta high-content imaging system (PerkinElmer) with a 20× objective lens. Bar 100 μm. (FIG. 8C) EM48 immunofluorescence intensity in (FIG. 8B) was quantified using an ImageJ-based macro. […] (FIG. 8D) Cortical neurons transduced and processed as in (FIG. 8A) were directly harvested in SDS sample buffer at DIV 10 and subjected to immunoblotting with anti-Htt EM48 monoclonal antibody. Blot was reprobed with anti-β-actin antibody. Representative immunoblot from 3 independent experiments is shown. […]
RNAs were isolated from cultured neurons 5 days after infection of Htt lentiviruses and mouse brain using the RNeasy Plus Mini Kit (QIAGEN) and RNeasy Plus Universal Mini Kit (QIAGEN), respectively. […] Relative mRNA levels were calculated using the ΔΔCq method.
Series [2] deals with Bdnf exon IV, exon VI, and IX transcripts in primary cortical neurons from BACHD mice. Nature of the series: qRT-PCR of Bdnf transcripts in BACHD primary cortical neurons. As to conditions: 0.2 μM for 3.5 days, vs. vehicle. Type of series: cell-based, mouse. On the procedure:
RNA was harvested 5 days later and subjected to qRT-PCR for total Bdnf (coding exon IX) using β-actin and 18S rRNA as reference genes. […] FIG. 3C depicts the schematic of the mouse Bdnf locus and the relative RNA levels of the Bdnf exons. White boxes, non-coding exons; gray box, coding exon. qRT-PCR was performed as in using exon-specific Bdnf primers. […] (FIG. 3G, FIG. 3H) Cortical neurons were co-transduced with lenti viruses expressing Htt and indicated shRNA and processed as in (FIG. 3C). […] (FIG. 3I) Primary cortical neurons from BACHD mice were treated with decitabine (0.2 μM) or vehicle for 3.5 days. qRT-PCR was performed using β-actin as a reference gene. […] Data are presented as mean+SEM.
Mouse primary cortical and striatal neurons from embryonic day (E) 15.5 Swiss Webster mouse fetuses (Taconic) were first plated in the minimal essential medium (MEM) containing 10% FBS, 0.45% glucose, 1 mM sodium pyruvate, 2 mM glutamine, 20 U/ml penicillin and 20 μg/ml streptomycin, for 3 h and then maintained in serum-free Neurobasal medium (Life Technologies) containing NeuroCult™ SM1 neuronal supplement ([…] Technologies), 0.5 mM glutamine and 25 μM glutamate for the first 3 d in a humidified incubator (37° C. in 5% CO2). Half of the medium was replaced with Neurobasal medium with SM1 and 0.5 mM glutamine every 3 days.

For series [3], the system named is Htt-72Q-expressing primary cortical neurons. Nature of the series: Epigenetic drug library screen, resazurin (Alamar Blue) assay. The class given is cell-based, mouse. As to conditions: 0.02, 0.2, 2 μM added at DIV 6, resazurin at DIV 14; hits validated by MTS. In general terms: Alamar Blue is a resazurin reagent that responds to reducing activity.
Experimental: As epigenetic gene regulation is a cell-type specific mechanism, we used a physiologically relevant, post-mitotic cortical neuron culture system for this screen. In this system, lentivirus-mediated expression of the exon 1-encoded N-terminal fragment of mutant Htt (Htt-72Q with a 72 glutamine repeat), but not wild-type (WT) Htt (Htt-25Q), induces neurotoxicity^38. […] In the drug screen, the viability of Htt-expressing cortical neurons was determined by the resazurin (Alamar Blue) assay, a quantitative measurement of mitochondrial metabolic activity, which correlates with cell viability.
Epigenetic drug screen was performed using a primary cortical neuron model of HD with a drug library composed of 84 compounds (Table 1), among which 80 drugs are purchased from Cayman Chemical (Epigenetic Screening Library Item No 11076) and four drugs, SGC0946, EPZ5676, EPZ6438, and GSK126, were obtained from Xcessbio Biosciences Inc. Mouse primary cortical neurons were plated on 96-well flat clear bottom black plates (Corning #3904). WT or mutant Htt exon1 fragment (Htt-25Q or Htt-72Q)-expressing lentiviruses are infected at DIV 5 as described above. The 84 compounds were added to the media at DIV 6 one day after Htt lentiviral infection with three different doses (0.02, 0.2, 2 μM) for each compound at triplicates. DMSO was used as control. Media containing compounds or DMSO were changed every three days to maintain the compounds' activity. At DIV 14, the viability of neurons was determined by resazurin (Alamar blue) assay, a quantitative measurement of mitochondrial metabolic activity. The screen was fully automated and performed in the High-Throughput Screening Center in Washington University School of Medicine. Any possible plate effects were determined using control plates treated with DMSO and used for normalization. Screen hits were validated by MTS assay.
For series [4] the following is noted: cited from earlier work.

`Nc1ncn([C@H]2C[C@H](O)[C@@H](CO)O2)c(=O)n1` [decitabine, 5-aza-2′-deoxycytidine]: the “levels of Htt-72Q mRNA” value in series [1] is reported as “did not decrease the levels of Htt-72Q mRNA”. The “expression of Bdnf exon IV, exon VI, and IX transcripts” value in series [2] was “increased expression of Bdnf exon IV, exon VI, and IX transcripts”. Also, the “outcome in epigenetic drug screen (84 compounds)” value in series [3] is reported as “the most effective drug”. Further, the blood-brain barrier crossing entry in series [4] (literature refs 62, 63) was “reported to cross the blood-brain barrier”. For the same compound, in series [4] (literature refs 62, 64), the in vivo half-life is listed as less than 20 min.
